Question: With `[C-]#[N+]CS(=O)(=O)c1ccccc1` [compound 3a, ((Isocyanomethyl)sulfonyl)benzene] as the compound, how does the melting point read?
Answer: The melting point was 89 to 90 °C.

Question: With `[C-]#[N+]CS(=O)(=O)c1ccc(C)cc1` [compound 3b, 1-((isocyanomethyl)sulfonyl)-4-methylbenzene] as the compound, how does the melting point read?
Answer: Its melting point is 112 to 113 °C.

Question: For `[C-]#[N+]CS(=O)(=O)c1ccc2ccccc2c1` [compound 3d, 2-((isocyanomethyl)sulfonyl)naphthalene], which melting point is on record?
Answer: Its melting point is 104 to 105 °C.

Question: Which melting point does the source give for `[C-]#[N+]CS(=O)(=O)c1ccc(F)cc1` [compound 3e, 1-fluoro-4-((isocyanomethyl)sulfonyl)benzene] here?
Answer: Its melting point is 63 °C.

Question: With `[C-]#[N+]CS(=O)(=O)c1ccc(Cl)cc1` [compound 3f, 1-Chloro-4-((isocyanomethyl)sulfonyl)benzene] as the compound, how does the melting point read?
Answer: Its melting point is 109 to 110 °C (dec.).

Question: For `[C-]#[N+]CS(=O)(=O)c1cc(Cl)cc(Cl)c1` [compound 3h, 1,3-dichloro-5-((isocyanomethyl)sulfonyl)benzene], which melting point is on record?
Answer: Its melting point is 82 to 83 °C.

Question: For `[C-]#[N+]CS(=O)(=O)c1ccc(OC)c(OC)c1` [compound 3k, 4-((isocyanomethyl)sulfonyl)-1,2-dimethoxybenzene], which melting point is on record?
Answer: Its melting point is 101 to 102 °C.

Question: Which melting point does the source give for `[C-]#[N+]CS(=O)(=O)c1c(OC)cccc1OC` [compound 3p, 2-((Isocyanomethyl)sulfonyl)-1,3-dimethoxybenzene] here?
Answer: Its melting point is 90 to 91 °C.

Source: patent US20150239833A1, “COMPOSITION, SYNTHESIS, AND USE OF NEW ARYLSULFONYL ISONITRILES” (DUQUESNE UNIVERSITY OF THE HOLY GHOST, priority 2014, published 2015)
